Results: PubChem BioAssay (NCI)
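Assay format: 96-well plates, 48-hour exposure. GI50 is the concentration that inhibits growth by half. TGI is the concentration that stops growth completely.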

Key:
Assay in all cases: NCI tumour cell line growth inhibition, 48 h
HOP-92 NSCLC = system: HOP-92 NSCLC
SNB-75 CNS = system: SNB-75 CNS
A498 renal = system: A498 renal
RPMI-8226 leukemia = system: RPMI-8226 leukemia
LOX IMVI melanoma = system: LOX IMVI melanoma
U251 CNS = system: U251 CNS
IGROV1 ovarian = system: IGROV1 ovarian
HL-60(TB) leukemia = system: HL-60(TB) leukemia
UACC-62 melanoma = system: UACC-62 melanoma
786-0 renal = system: 786-0 renal

| SMILES | TGI (HOP-92 NSCLC) | TGI (SNB-75 CNS) | TGI (A498 renal) | TGI (RPMI-8226 leukemia) | TGI (LOX IMVI melanoma) | TGI (U251 CNS) | TGI (IGROV1 ovarian) | TGI (HL-60(TB) leukemia) | TGI (UACC-62 melanoma) | TGI (786-0 renal) | GI50 (HOP-92 NSCLC) | GI50 (SNB-75 CNS) | GI50 (A498 renal) | GI50 (RPMI-8226 leukemia) | GI50 (LOX IMVI melanoma) | GI50 (U251 CNS) | GI50 (IGROV1 ovarian) | GI50 (HL-60(TB) leukemia) | GI50 (UACC-62 melanoma) | GI50 (786-0 renal) |
| --- | --- | --- | --- | --- | --- | --- | --- | --- | --- | --- | --- | --- | --- | --- | --- | --- | --- | --- | --- | --- |
| O=[N+]([O-])c1ccc(-c2ccc(/C=N/n3c(-c4ccc(Cl)cc4)n[nH]c3=S)o2)cc1 | > 94.3 µM | > 83.1 µM | > 100 µM | > 31.6 µM | > 100 µM | > 53.7 µM | > 100 µM | > 100 µM | > 100 µM | 46.2 µM |  |  |  |  |  |  |  |  |  |  |
| O=c1c(Cl)nnc2sc3ccccc3n12 | > 100 µM | > 100 µM | > 100 µM | > 100 µM | 64.5 µM | 85.3 µM | > 100 µM | > 100 µM | > 100 µM | > 100 µM | 20.6 µM | > 100 µM | > 100 µM | 27.9 µM | 30.5 µM | 30.9 µM | 31.9 µM | 18.3 µM | 40.8 µM | 64.7 µM |
| CCCCCCC(=O)C/C(CCC(=O)N(Cc1ccccc1)Cc1ccccc1)=N\Nc1ccc([N+](=O)[O-])cc1[N+](=O)[O-] | > 100 µM | > 100 µM | > 100 µM | > 100 µM | > 100 µM | > 100 µM | > 100 µM | > 100 µM | > 100 µM | > 100 µM |  |  |  |  |  |  |  |  |  |  |
| CC1(C)CC(=O)C2=C(C1)NC(SSC1=C(C#N)C(c3ccccc3)C3=C(CC(C)(C)CC3=O)N1)=C(C#N)C2c1ccccc1 (stereo not given) | 51 µg/mL | 53.3 µg/mL | 59.8 µg/mL | 134 µg/mL | 49.3 µg/mL | 64.2 µg/mL | 50.1 µg/mL | 97.8 µg/mL | 47.6 µg/mL | 49.5 µg/mL | 29 µg/mL | 29 µg/mL | 30.4 µg/mL | 46.5 µg/mL | 27.2 µg/mL | 33.2 µg/mL | 28.3 µg/mL | 33.7 µg/mL | 26.3 µg/mL | 28.4 µg/mL |
| COc1cc[nH]c1/C=C1\C(=O)Nc2ccc(F)c(C#C[C@@H](O)[C@@H](N)[C@@H](C)O)c21 | 1.96 µM | 0.75 µM | 0.955 µM | 1.83 µM | 2.5 µM | 2.61 µM | 5.24 µM | 1.55 µM | 0.853 µM | 3.37 µM | 0.517 µM | 0.112 µM | 0.397 µM | 0.683 µM | 0.516 µM | 0.445 µM | 0.618 µM | 0.42 µM | 0.277 µM | 0.708 µM |
| O=[N+]([O-])c1ccc(Sc2ncccn2)c([N+](=O)[O-])c1 | 3.94 µM | 17.6 µM | 20.7 µM | 5.4 µM | 15 µM | 15.3 µM | 13.6 µM | 15.8 µM | 16.2 µM | 16.1 µM | 1.15 µM | 4.51 µM | 7.6 µM | 1.89 µM | 4.3 µM | 4.46 µM | 1.27 µM | 2.37 µM | 4.31 µM | 4.59 µM |
| O=C1CC(=O)N(C2CCCCC2)C(=O)N1c1ccccc1S(=O)(=O)Oc1ccccc1 | > 100 µM | > 100 µM | > 100 µM | 97.1 µM | 7.69 µM | > 100 µM | 30.2 µM | > 100 µM | > 100 µM | 33.3 µM |  |  |  |  |  |  |  |  |  |  |
| CCOC(=O)/N=c1\ss/c(=N\C(=S)N(C)C)n1-c1ccccc1 | 94.2 µM | 28.3 µM | > 100 µM | > 100 µM | > 100 µM | 71.3 µM | > 100 µM | > 100 µM | > 100 µM | > 100 µM |  | 4.69 µM | 35 µM | > 100 µM |  |  | > 100 µM | > 100 µM |  |  |
| O/N=C1\CCc2cc(-c3nc(C4CCNCC4)[nH]c3-c3ccncc3)ccc21 | > 25 µM | > 25 µM | > 25 µM | > 25 µM | > 25 µM | > 25 µM | > 25 µM | > 25 µM | > 25 µM | > 25 µM | > 25 µM | > 15.8 µM | > 25 µM | > 25 µM | > 25 µM | > 25 µM | > 25 µM | > 25 µM | 0.24 µM | > 25 µM |
| C=C(c1ccccc1N)[C@@]1(O)C[C@H](/C(=C\C)CO)C[C@@H]1NCc1ccccc1 | 27.5 µM | 24.6 µM | > 100 µM | 42.5 µM | 31.6 µM | 33.3 µM | > 100 µM | 29.9 µM | > 100 µM | 46 µM |  |  |  |  |  |  |  |  |  |  |
| COc1cc2c3c(n(C)c(=O)c2cc1OC)-c1cc2c(cc1/C3=C\CCCCN)OCO2 | > 100 µM | 7.12 µM | 22.6 µM | 24.7 µM | 41.1 µM | 21.6 µM | 8.53 µM | > 100 µM | 37.8 µM | 19.6 µM | 43.5 µM | 3.54 µM | 9.53 µM | 4.44 µM | 12.9 µM | 6.04 µM | 3.12 µM | 4.68 µM | 12.5 µM | 5.23 µM |
| COc1ccc(/C(=C/c2cc(OC)c(OC)c(OC)c2)[N+](=O)[O-])cc1 | 3.09 µM | 6.3 µM | 3.63 µM | 4.77 µM | 3.07 µM | 3.05 µM | 3.94 µM | 5.59 µM | 3.07 µM | 3.05 µM | 1.44 µM | 2.02 µM | 1.76 µM | 1.7 µM | 1.62 µM | 1.58 µM | 1.8 µM | 1.61 µM | 1.56 µM | 1.66 µM |
| O=C1c2ccccc2-c2c1c1ccccc1c(=O)n2CCO | > 71.6 µM | > 81 µM | > 100 µM | > 100 µM | > 100 µM | > 100 µM | > 100 µM | 7.29 µM | > 59.5 µM | > 100 µM |  |  |  |  |  |  |  |  |  |  |
| OB([O][Hg][c]1ccccc1)[O][Hg][c]1ccccc1 | 0.528 µM | 1.36 µM | 2.48 µM | 0.592 µM | 0.366 µM | 1.89 µM | 0.401 µM | 0.378 µM | 1.69 µM | 0.856 µM | 0.185 µM | 0.291 µM | 0.98 µM | 0.211 µM | 0.173 µM | 0.507 µM | 0.0949 µM | 0.0886 µM | 0.454 µM | 0.281 µM |
